Data reported in ChEMBL document CHEMBL1770097, “Non-competitive and selective dipeptidyl peptidase IV inhibitors with phenethylphenylphthalimide skeleton derived from thalidomide-related α-glucosidase inhibitors and liver X receptor antagonists” (Bioorg Med Chem Lett, 2011).
pIC50: −log10 of the molar value. The source made the active and inactive calls. The calls are words filed in the database; no cut-off is given here.

Target: T1, Dipeptidyl peptidase 4 (Homo sapiens, UniProt P27487)
Assay: Inhibition of DPP4 at 10 uM assessed as […] release after 1 hr relative to control
Target sequence in this assay (P27487 whole entry, looked up): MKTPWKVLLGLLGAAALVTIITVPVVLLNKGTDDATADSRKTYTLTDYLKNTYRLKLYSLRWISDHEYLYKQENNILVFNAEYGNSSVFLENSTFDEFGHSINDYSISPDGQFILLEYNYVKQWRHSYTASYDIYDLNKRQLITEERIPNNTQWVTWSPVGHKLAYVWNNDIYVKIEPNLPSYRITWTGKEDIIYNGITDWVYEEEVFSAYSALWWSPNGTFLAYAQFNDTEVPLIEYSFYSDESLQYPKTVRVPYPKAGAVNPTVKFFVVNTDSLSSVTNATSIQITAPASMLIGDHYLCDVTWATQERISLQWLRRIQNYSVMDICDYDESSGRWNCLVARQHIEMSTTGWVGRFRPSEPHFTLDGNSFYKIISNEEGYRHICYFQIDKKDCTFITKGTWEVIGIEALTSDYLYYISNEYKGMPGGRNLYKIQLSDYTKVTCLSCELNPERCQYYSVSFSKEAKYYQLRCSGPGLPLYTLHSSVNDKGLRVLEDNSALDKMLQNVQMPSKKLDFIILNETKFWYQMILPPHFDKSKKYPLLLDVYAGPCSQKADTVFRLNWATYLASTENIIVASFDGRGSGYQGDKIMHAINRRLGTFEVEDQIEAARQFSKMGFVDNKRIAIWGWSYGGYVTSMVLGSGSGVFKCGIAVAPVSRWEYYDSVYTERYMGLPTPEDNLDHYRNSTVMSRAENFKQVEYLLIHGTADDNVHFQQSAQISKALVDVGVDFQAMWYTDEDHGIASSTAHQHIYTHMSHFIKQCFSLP

Structure (SMILES)	inhibition
O=C1c2ccccc2C(=O)N1c1ccc(CCc2ccc(O)c(O)c2)cc1	7%
O=C1c2ccccc2C(=O)N1c1ccc(CCc2ccccc2)cc1	6%
COc1ccc(CCc2cccc(N3C(=O)c4c(Cl)c(Cl)c(Cl)c(Cl)c4C3=O)c2)cc1OC	0%
COc1ccc(CCc2cccc(N3C(=O)c4ccccc4C3=O)c2)cc1OC	0%
O=C1c2c(Cl)c(Cl)c(Cl)c(Cl)c2C(=O)N1c1cccc(CCc2ccc(O)c(O)c2)c1	5%
O=C1c2c(Cl)c(Cl)c(Cl)c(Cl)c2C(=O)N1c1ccc(CCc2ccc(O)c(O)c2)cc1	11%
O=C1c2c(Cl)c(Cl)c(Cl)c(Cl)c2C(=O)N1c1ccccc1CCc1ccccc1	7%
O=C1c2c(Cl)c(Cl)c(Cl)c(Cl)c2C(=O)N1c1cccc(CCc2ccccc2C(F)(F)F)c1	86%
COc1ccc(CCc2ccccc2N2C(=O)c3c(Cl)c(Cl)c(Cl)c(Cl)c3C2=O)cc1OC	2%
O=C1c2c(Cl)c(Cl)c(Cl)c(Cl)c2C(=O)N1c1cccc(CCc2c(F)c(F)c(F)c(F)c2F)c1	19%
COc1ccc(CCc2ccc(N3C(=O)c4ccccc4C3=O)cc2)cc1OC	0%
O=C1c2ccccc2C(=O)N1c1cccc(CCc2ccc(O)c(O)c2)c1	7%
O=C1c2c(Cl)c(Cl)c(Cl)c(Cl)c2C(=O)N1c1cccc(CCc2ccc(F)cc2)c1	20%
O=C1c2c(Cl)c(Cl)c(Cl)c(Cl)c2C(=O)N1c1cccc(CCc2ccccc2)c1	26%
O=C1c2c(Cl)c(Cl)c(Cl)c(Cl)c2C(=O)N1c1cccc(CCc2ccc(C(F)(F)F)cc2)c1	38%
O=C1c2ccccc2C(=O)N1c1cccc(CCc2ccccc2)c1	2%
COc1ccc(CCc2ccccc2N2C(=O)c3ccccc3C2=O)cc1OC	0%
O=C1c2c(Cl)c(Cl)c(Cl)c(Cl)c2C(=O)N1c1ccc(CCc2ccccc2)cc1	12%
O=C1c2ccccc2C(=O)N1c1ccccc1CCc1ccc(O)c(O)c1	4%
O=C1c2ccccc2C(=O)N1c1ccccc1CCc1ccccc1	0%
COc1ccc(CCc2ccc(N3C(=O)c4c(Cl)c(Cl)c(Cl)c(Cl)c4C3=O)cc2)cc1OC	3%
O=C1c2c(Cl)c(Cl)c(Cl)c(Cl)c2C(=O)N1c1ccccc1CCc1ccc(O)c(O)c1	12%
O=C1c2c(Cl)c(Cl)c(Cl)c(Cl)c2C(=O)N1c1cccc(CCc2cccc(C(F)(F)F)c2)c1	87%
Cc1ccc(CCc2cccc(N3C(=O)c4c(Cl)c(Cl)c(Cl)c(Cl)c4C3=O)c2)cc1	25%

System: not listed separately
Assay: Selectivity ratio of IC50 for DPP4 over IC50 for DPP8

Structure (SMILES)	Ratio IC50
O=C1c2c(Cl)c(Cl)c(Cl)c(Cl)c2C(=O)N1c1cccc(CCc2cccc(C(F)(F)F)c2)c1	10

Target: Dipeptidyl peptidase 8 (Homo sapiens, UniProt Q6V1X1)
Assay: Inhibition of DPP8 assessed as […] release after 1 hr

Sequence of Dipeptidyl peptidase 8 (Q6V1X1 whole entry): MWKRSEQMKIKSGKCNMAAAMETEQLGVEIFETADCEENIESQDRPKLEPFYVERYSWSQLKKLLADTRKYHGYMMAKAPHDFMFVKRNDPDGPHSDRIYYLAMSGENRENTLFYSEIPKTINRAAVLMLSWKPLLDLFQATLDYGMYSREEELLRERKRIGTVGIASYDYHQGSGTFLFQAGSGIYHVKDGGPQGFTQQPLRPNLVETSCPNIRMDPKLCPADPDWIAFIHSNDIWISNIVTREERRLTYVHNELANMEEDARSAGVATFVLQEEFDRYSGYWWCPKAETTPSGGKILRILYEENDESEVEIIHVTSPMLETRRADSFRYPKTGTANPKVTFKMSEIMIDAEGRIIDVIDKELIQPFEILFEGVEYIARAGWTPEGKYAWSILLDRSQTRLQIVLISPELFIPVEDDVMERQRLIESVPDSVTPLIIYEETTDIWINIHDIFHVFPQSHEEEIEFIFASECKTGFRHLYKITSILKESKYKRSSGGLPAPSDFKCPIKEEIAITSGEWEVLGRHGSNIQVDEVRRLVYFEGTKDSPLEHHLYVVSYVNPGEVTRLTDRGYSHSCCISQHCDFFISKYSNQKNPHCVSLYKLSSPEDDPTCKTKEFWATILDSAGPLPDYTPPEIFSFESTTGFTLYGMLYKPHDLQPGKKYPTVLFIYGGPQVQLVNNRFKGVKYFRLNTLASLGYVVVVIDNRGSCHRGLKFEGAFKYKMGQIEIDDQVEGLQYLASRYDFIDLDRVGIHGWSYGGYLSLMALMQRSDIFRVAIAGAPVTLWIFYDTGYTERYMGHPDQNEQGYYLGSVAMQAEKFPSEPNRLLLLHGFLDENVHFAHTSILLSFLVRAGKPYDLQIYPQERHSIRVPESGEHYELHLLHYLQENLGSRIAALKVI

Structure (SMILES)	pIC50
O=C1c2c(Cl)c(Cl)c(Cl)c(Cl)c2C(=O)N1c1cccc(CCc2cccc(C(F)(F)F)c2)c1	< 4.52

Target: T1, Dipeptidyl peptidase 4
Assay: Inhibition of DPP4 assessed as […] release after 1 hr

Structure (SMILES)	pIC50	inhibition
O=C1c2c(Cl)c(Cl)c(Cl)c(Cl)c2C(=O)N1c1cccc(CCc2ccccc2C(F)(F)F)c1	5.40	Active
O=C1c2c(Cl)c(Cl)c(Cl)c(Cl)c2C(=O)N1c1cccc(CCc2cccc(C(F)(F)F)c2)c1	5.51	Active
